# Results published in ChEMBL document CHEMBL1158290, “Two fungal lanostane derivatives as phospholipase A2 inhibitors” (J Nat Prod, 1996).
# Tests used:
# [1] = target: Acidic phospholipase A2 2 (Naja naja) (UniProt P15445); assay: Inhibition of snake venom phospholipase A2 at 1 mM assessed as oxygen consumption for 3 mins
# [2] = target: Acidic phospholipase A2 2 (Naja naja, UniProt P15445); assay: Inhibition of snake venom phospholipase A2 assessed as oxygen consumption for 3 mins
# [3] = target: Acidic phospholipase A2 2 (Naja naja) (UniProt P15445); assay: Inhibition of snake venom phospholipase A2 at 3.700 mM assessed as oxygen consumption for 3 mins
# [4] = target: Acidic phospholipase A2 2 (Naja naja) (UniProt P15445); details: 5.800 mM
# Description: Inhibition of snake venom phospholipase A2 at 5.800 mM assessed as oxygen consumption for 3 mins
# Chain of Acidic phospholipase A2 2 (P15445 whole entry): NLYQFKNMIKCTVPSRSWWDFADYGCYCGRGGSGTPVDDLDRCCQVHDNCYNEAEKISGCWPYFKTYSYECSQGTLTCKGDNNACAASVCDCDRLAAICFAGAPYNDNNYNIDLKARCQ
# Chain of Acidic phospholipase A2 2 (Naja naja) (P15445 whole entry): as above
Structure (SMILES),inhibition [1] [%],IC50 [2] [µM],inhibition [3] [%],inhibition [4] [%]
C=C(CC[C@@H](C(=O)O)[C@H]1[C@H](O)C[C@@]2(C)C3=CC[C@H]4C(C)(C)[C@@H](O)CC[C@]4(C)C3=CC[C@]12C)C(C)C [DEHYDROTUMULOSIC ACID],58.6,845,,
C=C(CC[C@@H](C(=O)O)[C@H]1[C@H](O)C[C@@]2(C)C3=C(CC[C@]12C)[C@@]1(C)CC[C@H](OC(C)=O)C(C)(C)[C@@H]1CC3)C(C)C [PACHYMIC ACID],,2900,66,
CCN(CC)CCCC(C)Nc1c2ccc(Cl)cc2nc2ccc(OC)cc12 (stereo unspecified) [QUINACRINE],,2160,,85.5
